This is an account of results in ChEMBL document CHEMBL4229334, “Fluoroquinolone derivatives and their anti-tubercular activities” (Eur J Med Chem, 2018).

Assay type in all cases: functional
The test system of test [1] is Mycobacterium tuberculosis. The test is described as follows: Antibacterial activity against multidrug resistant Mycobacterium tuberculosis ATTC 27294 by Alamar Blue assay.
The subject of test [2] is Mycobacterium tuberculosis. The test is described as follows: Antitubercular activity against rifampicin-resistant Mycobacterium tuberculosis after 21 days by two fold agar dilution method. As to conditions: 504 h. A general note: In agar dilution the substance is mixed into plates at graded concentrations.
The test system of test [3] is Mycobacterium tuberculosis. The experiment in a line: Potency index, ratio of MIC for LVFX to MIC for test compound for antitubercular activity against rifampicin-resistant Mycobacterium tuberculosis after 21 days by two fold agar dilution method.
For test [4], the system named is Mycobacterium tuberculosis. The test is described as follows: Potency index, ratio of MIC for GTFX to MIC for test compound for antitubercular activity against rifampicin-resistant Mycobacterium tuberculosis after 21 days by two fold agar dilution method.
Test [5] concerns Mycobacterium tuberculosis. The test is described as follows: Potency index, ratio of MIC for rifampicin to MIC for test compound for antitubercular activity against rifampicin-resistant Mycobacterium tuberculosis after 21 days by two fold agar dilution method.
Test [6] has as its system Mycobacterium tuberculosis. The test is described as follows: Potency index, ratio of MIC for isoniazid to MIC for test compound for antitubercular activity against rifampicin-resistant Mycobacterium tuberculosis after 21 days by two fold agar dilution method.
In test [7] the test system is Mycobacterium tuberculosis. The experiment in a line: Antibacterial activity against multidrug resistant Mycobacterium tuberculosis after 7 days by two fold dilution assay. The note with it: 168 h.

Molecules are shown by their SMILES. ≈ marks a conversion by molar mass, not a printed value.

The compound `COc1c(N2CCNC(C)C2)c(F)cc2c(=O)c(C(=O)O)cn(C3CC3)c12` (stereo not given) [GATIFLOXACIN] showed a minimum inhibitory concentration (MIC) in test [1] of 0.1 to 0.6 µg/mL (≈ 0.266 to 1.6 µM).
As for `C[C@H]1COc2c(N3C[C@H]4CCCN[C@H]4C3)c(F)cc3c(=O)c(C(=O)O)cn1c23`, the minimal inhibitory concentration (MIC) in test [2] is 0.2 to 1.7 µg/mL (≈ 0.516 to 4.39 µM). The Ratio result in test [3], in test [4], in test [5] and in test [6] was “>=2.7 - 250” in each case.
In test [1], `O=C(O)c1cn(C2CC2)c2cc(N3CCNCC3)c(F)cc2c1=O` [CIPROFLOXACIN] registered an MIC of 0.1 to 0.6 µg/mL (≈ 0.302 to 1.81 µM).
Take `NNC(=O)c1ccncc1` [ISONIAZID]: in test [7], the MIC is over 128 µg/mL.
The compound `CO[C@H]1/C=C/O[C@@]2(C)Oc3c(C)c(O)c4c(O)c(c(/C=N/N5CCN(C)CC5)c(O)c4c3C2=O)NC(=O)/C(C)=C\C=C\[C@H](C)[C@H](O)[C@@H](C)[C@@H](O)[C@@H](C)[C@H](OC(C)=O)[C@@H]1C` [RIFAMPIN] showed a minimal inhibitory concentration (MIC) in test [7] of 32 µg/mL (≈ 38.9 µM).
With `COc1c(N2C[C@@H]3CCCN[C@@H]3C2)c(F)cc2c(=O)c(C(=O)O)cn(C3CC3)c12` [MOXIFLOXACIN], the MIC in test [1] is 0.1 to 0.6 µg/mL (≈ 0.249 to 1.49 µM).

As usually defined, the MIC is the lowest concentration that inhibits growth of the organism. Lower therefore signals a more susceptible organism.
